Several values for one entry are separate records, joined by “and”; a condition that tells them apart may be missing. Equal entries are not always repeated.
Tested on: 5xFAD mice
Test: Novel object recognition in 5xFAD mice
Format: in vivo, mouse
Parameters: key: (novel − familiar)/(novel + familiar) exploration time, −1 to 1
Settings: 5xFAD 1 month
Method: We next aimed to test the effect of QR2 inhibition in AD model mice using YB-537, taking advantage of its extremely high specificity, solubility, and lack of toxicity. First, we determined YB-537 pharmacokinetics (PK) and oral bioavailability and assessed any acute observable toxicity in mice. […] We therefore opted to chronically deliver YB-537 to AD-model mice via their drinking water, so they may freely ingest the inhibitor at 50 mg/kg, with minimal intervention or trauma, for 1 month. We chose 9-month-old 5xFAD ([27]) male and female mice in double-blind experiments, so that well-progressed symptoms and pathologies would be present, to mimic clinically relevant cases in human patients ([35]), as has been previously described in this mouse model. Other than an improvement in nest quality ([36]) over time seen in animals receiving YB-537 (starting at age 8 months and ending at age 9 months), no changes to general physical parameters or wellbeing were observed over the 1 month of YB-537 ingestion (Supplemental Figure 6, A–J). […] Since learning in this paradigm was slow, and performance was poor even following 6 days of training (using 4 learning trials a day), a test day was not carried out and instead only the learning rate was measured. […]
Following a 10 minute exploration of a 50 × 50 cm open-field arena, mice were returned to the arena the next day, which contained 2 identical objects. […] Mouse movement, exploration, and nuzzling was automatically recorded with an Ikegami ICD-49E camera with EthoVision 14 (Noldus Information Technology). Discrimination of the novel object was assessed by calculating (time exploring novel object – time exploring familiar object)/(time exploring novel object + time exploring familiar object). […]
Mice were individually placed within a cage and taken to a dimly lit room containing an open field arena 50 x 50 cm in size. […] Th e fl oor was ei ther whit e or black,dependingon mous e coat c ol or, to allow automatic analysisof movement par am et ers, apar t from rearing which was manually counted. […]

Compound: Cc1ccc(-c2cn3cccc(C)c3n2)cc1S(=O)(=O)N1CCNCC1 [YB-537]
- novel object discrimination (individual mice) (both sexes): -0.101 and 0.504 and 0.236 and 0.249 and -0.330 and 0.874 and 0.145 and -0.163 and -0.038 and -0.010 and 0.265 and -0.414 and 0.439 and 0.710 and 0.259 and 0.231
- novel object discrimination (individual mice) (females): 0.504 and 0.236 and 0.439 and 0.710 and 0.259 and 0.231 and -0.101
- novel object discrimination (individual mice) (males): -0.038 and -0.010 and 0.265 and -0.414 and 0.249 and -0.330 and 0.874 and 0.145 and -0.163

From article PMC10541198, “Specific quinone reductase 2 inhibitors reduce metabolic burden and reverse Alzheimer’s disease phenotype in mice” (The Journal of Clinical Investigation, 2023)
